Measured values reported in patent US6348482B1, “Catechols as antimicrobial agents” (Merck & Co., Inc., priority 1999, dated 2002).
Values after ≈ are worked out from the molar mass of the structure shown.

Columns and labels:
[1] = target: aminoacyl-tRNA synthetases (aaRS); test: aaRS charging and trichloroacetic acid precipitation assay (IC50), Sa enzyme; type: biochemical; conditions: aaRS from Sa; 20 min preincubation at 25 C
Experimental: (§1) IC50 determinations for the aminoacyl-tRNA synthetases (aaRS) isolated from pathogen or HeLa cells were carried out using a modification of the aaRS charging and trichloroacetic acid precipitation assay described previously (see examples: D. Kern et. al., Biochemie, 61, 1257-1272 (1979) and J. Gilbart et. al. Antimicrobial Agents and Chemotherapy, 37(1), 32-38 (1993)). The aaRS enzymes were prepared via standard cloning and expression methods and partially purified or partially purified from pathogen and HeLa cell extracts. The activity of each aaRS enzyme was standardized as trichloroacetic acid precipitable counts (cpm) obtained at 10 minutes reaction time at Km concentrations of substrates. For practical purposes, the minimal acceptable value is approximately 2000 cpm per 10 minute reaction.
(§2) Preincubations for IC50 determinations were initiated by incubating partially purified aaRS extracts in 50 mM HEPES (pH 7.5), 0.1 mM EDTA, 0.05 mg/ml bovine serum albumin, 10 mM dithiothreitol and 2.5% dimethyl sulfoxide with and without test compound (e.g. compound of the invention (preferably a compound of Formula I)) in a final volume of 20 microliters in a microtiter plate for 20 minutes at 25 C. Test compounds were typically present as serial dilutions in concentration ranges of 0.35 nM to 35 μM. Test compound solutions were prepared by dissolving test compound in 100% dimethyl sulfoxide and diluting to the final concentration with 50 mM HEPES, pH 7.5. IC50 determinations were typically performed in duplicate with each experiment containing 4-8 concentrations of inhibitor along with two no inhibitor controls.
(§3) IC50 incubations were initiated by supplementing the preincubation mixture to a final assay concentration of 10 mM MgCl2, 30 mM KCl, 10 mM KF, 50 mM HEPES (pH 7.5), 20 μM-500 mM ATP, 2-20 μM [^3H] amino acid, and 90-180 μM crude tRNA in a final volume of 35 microliters. The reaction was incubated at 25° C. for 5-20 minutes. At specified time points a 15 microliter aliquot was removed and added to a well of a Millipore filtration plate (Multiscreen-FB, MAFB NOB 10) containing 100 microliters of cold 5% (wt/vol) trichloroacetic acid. Trichloroacetic acid precipitable material was collected by filtration on Millipore Multiscreen filtration station, washed twice with cold 5% trichloroacetic acid, twice with water, and dried. Plates were typically allowed to air dry for several hours or they were baked at 50° C. in a vacuum oven for 30 minutes. The radioactivity on the dried plates was quantitated by the addition of Packard Microscint-20 to the wells and counting with a Packard TopCount scintillation counter.
(§4) Inhibitor activity was typically reported as a percentage of the control aaRS activity. The IC50 value was determined by plotting per cent activity versus compound concentration in the assay and identifying the concentration at which 50% of the activity was remaining.

[2] = tested on: Efs; test: Whole cell antimicrobial screen (MIC), Efs; type: cell-based; conditions: overnight incubation, 2-fold dilutions, read-out: MIC (μg/mL) Efs
Experimental: (§5) Compounds were tested for antimicrobial activity against a panel of organisms according to standard procedures described by the National Committee for Clinical Laboratory Standards (NCCLS document M7-A3, Vol. 13, No. 25, 1993/NCCLS document M27-P, Vol. 12, No. 25, 1992). Compounds were dissolved in 100% DMSO and were diluted to the final reaction concentration (0.1 μg/ml-500 μg/ml) in microbial growth media. In all cases the final concentration of DMSO incubated with cells is less than or equal to 1%. For minimum inhibitory concentration (MIC) calculations, 2-fold dilutions of compounds were added to wells of a microtiter plate containing 1×10^5 bacteria or fungal cells in a final volume of 200 lambda of an appropriate media (Mueller-Hinton Broth; Haemophilus Test Media; Mueller-Hinton Broth+5% Sheep Blood; or […]). Plates were incubated overnight at an appropriate temperature (30° C.-37° C.) and optical densities (measure of cell growth) were measured using a commercial plate reader. The MIC value is defined as the lowest compound concentration inhibiting growth of the test organism.

[3] = target: aminoacyl-tRNA synthetases (aaRS); test: aaRS charging and trichloroacetic acid precipitation assay (IC50), Ef enzyme; type: biochemical; conditions: aaRS from Ef; 20 min preincubation at 25 C
Experimental: as §1, §2, §3, §4

[4] = tested on: Efm; test: Whole cell antimicrobial screen (MIC), Efm; type: cell-based; conditions: overnight incubation, 2-fold dilutions, read-out: MIC (μg/mL) Efm
Experimental: as §5

[5] = tested on: Sa; test: Whole cell antimicrobial screen (MIC), Sa; type: cell-based; conditions: overnight incubation, 2-fold dilutions, read-out: MIC (μg/mL) Sa
Experimental: as §5

IC50 [1]	MIC [2]	IC50 [3]	MIC [4]	MIC [5]	SMILES
< 500 nM	> 100 µg/mL	< 500 nM	> 100 µg/mL	> 100 µg/mL	Clc1ccc(COc2ccccc2OCc2nc3ccccc3[nH]2)c(Cl)c1 [126,419]
< 500 nM	> 100 µg/mL	< 500 nM	> 100 µg/mL	> 100 µg/mL	O=C(NC(CO)C(=O)O)c1ccc(OCc2ccc(Cl)cc2Cl)c(OCc2nc3ccccc3[nH]2)c1 (stereo not shown) [130,968]
< 500 nM	< 100 µg/mL	< 500 nM	100 µg/mL (≈ 189 µM)	> 100 µg/mL	O=C(NC(CO)C(=O)O)c1ccc(OCc2nc3ccccc3[nH]2)c(OCc2ccc(Cl)cc2Cl)c1 (stereo not shown) [130,970]
< 500 nM	100 µg/mL (≈ 192 µM)	< 500 nM	100 µg/mL (≈ 192 µM)	< 100 µg/mL	CS(=O)(=O)NC(=O)c1ccc(OCc2nc3ccccc3[nH]2)c(OCc2ccc(Cl)cc2Cl)c1 [130,971]
< 500 nM	< 10 µg/mL	< 500 nM	< 10 µg/mL	< 10 µg/mL	O=C(O)Cc1ccc(OCc2nc3ccccc3[nH]2)c(OCc2ccc(Cl)cc2Cl)c1 [130,976]
